Measurements: US20090035345A1, “Nuclear Receptors Agonists for Treatment of Atherosclerosis and/or Related Cardiovascular Disease” (ACADEMISCH MEDISCH CENTRUM, BUREAU, priority 2005, published 2009)
“Also recorded” adds a separate entry of the source.

Assays:
human SMCs = assay: Apoptosis of SMCs, Hoechst staining of nuclei; format: cell-based; settings: human, 24 h
Experimental: Human SMCs were explanted from umbilical cord arteries. Cells were cultured in DMEM (Invitrogen Life Technology, Breda, The Netherlands) with 10% (v/v) fetal bovine serum (FBS) with penicillin and streptomycin (Invitrogen). Cells were used at passages five to seven. […] To determine cellular viability, cells were washed with PBS and subsequently incubated in medium in the presence of 0.5-mg/ml 3-(4,5-dimethylthiazol-2-yl)-2,5-diphenyltetrazolium bromide (MTT; Sigma Diagnostics, St. Louis). After two hours, medium was discarded, formazan crystals were dissolved in isopropanol and optical density was measured at 590 nm. Apoptosis was induced by incubating cells for 24 hours in medium with 0.25 μM staurosporine (Sigma). Subsequently, SMCs were fixed, stained with Hoechst dye and the relative number of apoptotic nuclei was determined.

[1] = test system: cuff-induced neointima formation in mouse femoral artery; assay: Femoral artery cuff murine model, 6-MP-eluting cuffs; format: in vivo; settings: for cuff-induced neointima formation (intimal area): 4 weeks
Excerpt: All animal work was approved by AMC institutional regulatory authority and carried out in compliance with guidelines issued by the Dutch government. Wild-type FVB mice (Wt), transgenic mice expressing the full-length Nur77 gene (Nur77), or mice expressing a dominant-negative variant of Nur77 (ΔTA) (the latter two strains under control of the SM22α promoter, which directs the expression of transgenes specific to SMCs), in an FVB background, were used for experiments. Male mice, 10-12 weeks old, were fed a standard chow diet. At the time of surgery, mice were anaesthetized with an intraperitoneal injection of 5 mg/kg Dormicum (Roche, Basel, Switzerland), 0.5 mg/kg Dormitor (Orion, Helsinki, Finland) and 0.05 mg/kg Fentanyl (Janssen, Geel, Belgium). The femoral artery was dissected from its surroundings and loosely sheathed with a non-constrictive cuff. Either a control, empty cuff or a 6-MP eluting cuff (0.5% or 1% w/w) was used (n=6/group).
Wt and Nur77-overexpressing transgenic mice were sacrificed at 28 days after cuff placement, whereas ATA transgenic mice were sacrificed at 14 days after surgery. The thorax was opened and a mild pressure-perfusion (100 mmHg) with 4% (v/v) formaldehyde in 0.9% (w/v) NaCl was performed for 5 min by cardiac puncture. After perfusion, femoral arteries were harvested, fixed overnight in 4% (v/v) formaldehyde, dehydrated and paraffin embedded. Serial cross-sections (5 μm thick) for histological analysis were used throughout the entire length of the cuffed femoral artery. All samples were routinely stained with hematoxylin-phloxine-saffron (HPS). Weigert's elastin staining was used to visualize elastic laminae. Ten equally spaced cross-sections were used in all mice to quantify intimal lesions. Using image analysis software (Leica Qwin, Wetzlar, Germany), total cross sectional medial area was measured between the external and internal elastic lamina; total cross sectional intimal area was measured between the endothelial cell monolayer and the internal elastic lamina.
In vitro experiments were repeated at least twice and are presented as mean±SD and were analyzed by the Student t-test. Animal experiments are presented as mean±SEM and were analyzed using the Mann-Whitney U-test (SPSS 11.5 for Windows). P-values less than 0.05 were regarded as statistically significant.

Nur77 = molecular target: T1, Nur77 (Homo sapiens, UniProt P22736); assay: Nur77 reporter (NurRE) luciferase assay in Nur77-expressing SMCs; format: cell-based
T1 construct: expressed in transfected cells; host or cells: cultured human smooth muscle cells (SMCs), lentivirally transduced
Experimental: Cells were electroporated using the Amaxa method(Amaxa, Germany) with nucleofector reagent for SMCs. In each transfection, 0.5−1.0×10^6 cells were used and 3.5 μg Nur77-reporter plasmid with 1.5 μg Renilla luciferase plasmid (containing the thymidine kinase promoter) to correct for cell number and transfection efficiency. The NUR77-reporter plasmid contained the Nur response element (NurRE) of the POMC-promoter in triplicate with the −34/+63 minimal promoter of POMC gene.^19 24 hours after transfection, cells were incubated with 6-MP (Sigma) for 24 hours and luciferase activity was assayed with the Dual luciferase reporter system (Promega, Madison, Wis.).
To investigate whether 6-MP increases Nur77 transcriptional activity in vascular cells, human SMCs were transduced with lentivirus encoding Nur77, resulting in expression in 85-90% of the infected cells and increased Nur77 mRNA levels compared to mock-infected SMCs (data not shown). […] Nur77-overexpressing SMCs were subsequently electroporated with the firefly luciferase reporter construct, containing the palindromic NurRE (Nur77 response element from the POMC-promoter) sequence (TGATATTTn6AAATGCCA) to monitor Nur77 transcriptional activity in combination with the thymidine kinase-renilla luciferase construct as a control for transfection efficiency.

[2] = test system: saphenous vein smooth muscle cells; assay: Cyclic stretch-induced DNA synthesis ([3H]-thymidine incorporation) in venous SMCs; format: cell-based, human
Experimental: To study stretch-induced responses, smooth muscle cells were seeded in 6-well plates containing collagen Icoated flexible membranes (BioFlex® culture plates, Dunn Labortechnik GmbH, Asbach, Germany) and were stretched in the Flexercell FX3000 apparatus (Dunn Labortechnik) for 1, 2, 4, 6, or 24 h at 10% stretch at 0.5 Hz or served as control (without stretch). Silicone-based lubricant was applied to prevent friction between the membrane and loading post.
Smooth muscle cells were seeded in 6-well stretch plates and when wells were confluent, smooth muscle cells were made quiescent for 16 h in medium containing 0.5% (v/v) FBS.
The plates were transferred into the Loading Station™ and stretched for 24 h. Control plates, without stretch, were cultured under identical conditions. Thereafter, cells were labeled for 4 h with 0.5 microCi/mL [methyl-^3H]-thymidine (Amersham Biosciences).
Incorporated radioactivity was precipitated for 30 min at 4° C. with 10% (wt/v) trichloroacetic acid, washed twice with 5% (wt/v) trichloroacetic acid and dissolved in 0.5N NaOH. [^3H]-thymidine was measured by liquid scintillation counting.
When cells were infected with mock- or TR3-containing adenovirus (3×10^8 plaque-forming units) for 2 h, the cells were allowed to recover for 24 h in complete medium before they were made quiescent. Agonist treatment (6-MP) was initiated 1 h prior to stretch with 0, 1, 10, 25 microM C-DIM (stock at 40 mM in DMSO).
The following small interfering RNA (siRNA) sequences were used: TR3 siRNA, 5′-CAG UCC AGC CAU GCU CCU C dTdT-3′, and mutated control siRNA, 5′-CAG ACG AGC CUU GCU CGU C dTdT-3′ (Ambion Inc., UK). Per Flexerplate-well 1 μg of siRNA was transfected into 5×10^5 SMCs using Nucleofector reagent for SMCs (Amaxa GmbH, Cologne, Germany) as per the manufacturer's recommendations and subsequently the cells were placed in the stretch plates and were treated as described above.

[3] = Nur77 transgenic mice, 0.5% 6-MP cuff
[4] = Nur77 transgenic mice, 1% 6-MP cuff

T1 sequence (P22736 whole entry): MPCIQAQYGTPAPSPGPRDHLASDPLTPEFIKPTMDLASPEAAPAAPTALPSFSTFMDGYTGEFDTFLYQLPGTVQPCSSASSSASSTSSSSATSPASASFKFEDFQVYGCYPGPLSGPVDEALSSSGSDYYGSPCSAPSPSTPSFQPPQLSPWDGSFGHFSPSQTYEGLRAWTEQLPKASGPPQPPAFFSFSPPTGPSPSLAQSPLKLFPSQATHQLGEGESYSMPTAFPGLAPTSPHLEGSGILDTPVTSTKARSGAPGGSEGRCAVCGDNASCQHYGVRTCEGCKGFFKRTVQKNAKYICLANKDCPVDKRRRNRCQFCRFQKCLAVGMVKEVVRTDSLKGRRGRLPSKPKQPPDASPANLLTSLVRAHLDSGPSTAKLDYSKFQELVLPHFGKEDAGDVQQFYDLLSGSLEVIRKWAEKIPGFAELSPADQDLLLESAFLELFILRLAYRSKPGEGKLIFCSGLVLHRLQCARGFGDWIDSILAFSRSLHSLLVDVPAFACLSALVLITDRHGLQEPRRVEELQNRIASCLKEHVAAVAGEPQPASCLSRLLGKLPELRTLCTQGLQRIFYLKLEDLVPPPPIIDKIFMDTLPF

## Sc1ncnc2nc[nH]c12 [6-MP, 6-mercaptopurine]
Human SMCs
  apoptosis (apoptotic nuclei): 3%±2%
[1]; [3]
  intima/media ratio: 0.47±0.05
  cuff-induced neointima formation (intimal area): substantially reduced
[1]; [4]
  intima/media ratio: 0.30±0.06
  cuff-induced neointima formation (intimal area): significant inhibition
[1]; Wt and Nur77 transgenic mice
  medial areas of the cuffed femoral arteries: No changes
[1]; Wt mice, 0.5% 6-MP cuff
  intima/media ratio: 0.75±0.05
  cuff-induced neointima formation (intimal area): did not show a decrease
[1]; Wt mice, 1% 6-MP cuff
  intima/media ratio: 0.51±0.03
  cuff-induced neointima formation (intimal area): significant inhibition
[1]; ΔTA transgenic mice, 0.5% 6-MP cuff, 2 weeks
  neointima formation (intimal area): no significant effect
[1]; ΔTA transgenic mice, 1% 6-MP cuff, 2 weeks
  neointima formation (intimal area): no significant effect
[1]; ΔTA transgenic mice, 2 weeks
  media thickness: did not change
Nur77; 50 μM, 24 hours
  increase in Nur77 activity (luciferase): 10 fold
Nur77; 24 hours in the presence of 6-MP
  Nur77 transcriptional activity: enhances Nur77 activity
[2]; venous SMCs transfected with TR3-siRNA
  effect on stretch-induced DNA synthesis after TR3 knockdown: completely abolishes the effect of 6-MP; also recorded: no longer inhibits DNA synthesis
[2]; venous SMCs, 24 h cyclic stretch, 25 μM 6-MP
  stretch-induced DNA synthesis: completely inhibited
[2]; venous SMCs, 24 h cyclic stretch, 6-MP at various concentrations
  stretch-induced DNA synthesis ([3H]-thymidine incorporation): reduced stretch-mediated proliferation in a dose-dependent manner
